“Also recorded” adds a separate entry of the source.
Assays:
Assay type in all cases: physicochemical
[1] = Salt tolerance / solubility of surfactant solutions in DW, SW and FW; conditions: for Solubility and salt tolerance in DW, SW and FW: 10 wt % solutions in DW; for Solubility and salt tolerance in DW, SW and FW / Precipitation or phase separation of solutions in FW, SW and DW / Precipitation or phase separation in formation water (FIG. 5) / Precipitation or phase separation in seawater (FIG. 4): 90 days at 90° C.; for Solubility in simulated SW and FW: up to 90 days at 90° C.
Description: 10 wt % solutions of OPAC, OPAS, and OPAH were prepared in DW, SW, and FW and kept in the oven for 90 days at 90° C.

[2] = Thermogravimetric analysis (TGA), thermal stability; conditions: 20° C./min, nitrogen; for Thermal stability by TGA, stable up to: 30-500° C.
Description: TGA graph was obtained using SDT Q600 machine (TA instrument) with continuous heating at 20° C./min. The heating range 30-500° C. with a stable flow of nitrogen at 100 mL/min.

[3] = Surface tension, force tensiometer with Wilhelmy plate; conditions: water
Description: Surface activities of OPAC, OPAS, and OPAH were determined using a force tensiometer with a platinum Wilhelmy plate (Sigma 702, Biolin Scientific). The test temperatures were 30° C. and 60° C. The plate was flushed with deionized water before heating it red hot to ensure it was properly cleaned. The surface tension of deionized water was measured three times to check if the cleanup procedure yielded repeatable results. The samples were covered to minimize evaporation, but with enough space to let the plate go through the covering during the measurement.
The surface tension data was used to estimate other properties using the following equations:
[formula] [formula] [formula] where cmc is critical micelle concentration, γ0 represents surface tension of water without surfactant, γcmc is surface tension at cmc, πcmc Represents the ability of the surfactant to reduce the surface tension, rmax is the maximum surface access, Avogadro number is represented by NA, dγ/dlnC is the slope, C represents the concentration of surfactant, temperature, and gas constant are represented by T and R, respectively, Amin is the minimum area per molecule, and the values of n is 1 for zwitterionic surfactants. Synthesis

## Oleyl Polyoxyethylene Amidopropyl Sulfobetaine [OPAS]
[1]
  Solubility and salt tolerance in DW, SW and FW: compatible and soluble with all kinds of water; also recorded: excellent solubility
  Precipitation or phase separation of solutions in FW, SW and DW: no precipitation or phase separation was detected
  Precipitation or phase separation in formation water (FIG. 5): no signs of precipitation or phase separation
  Precipitation or phase separation in seawater (FIG. 4): no signs of precipitation or phase separation
  Solubility in simulated SW and FW: soluble
[2]
  Thermal stability by TGA, stable up to: ~300 °C
  Initial loss in weight (TGA; associated with water and solvent): 25%
  Temperature of big weight loss / decomposition temperature (TGA): 295 °C
[3]; 30° C.
  Amin (minimum area per molecule): 0.77 nm^2
  cmc: 3.66e-05 mol/L
  Γmax × 10^6 (maximum surface excess): 2.15 mol m^−2
  γcmc (surface tension at cmc): 37.04 mN m^−1
  πcmc (ability to reduce the surface tension): 35.59 mN/m
[3]; 60° C.
  Amin (minimum area per molecule): 1.01 nm^2
  cmc: 3.41e-05 mol/L
  Γmax × 10^6 (maximum surface excess): 1.64 mol m^−2
  γcmc (surface tension at cmc): 33.74 mN m^−1
  πcmc (ability to reduce the surface tension): 38.26 mN/m

## Oleyl Polyoxyethylene Amidopropyl Hydroxy Sulfobetaine [OPAH]
[1]
  Solubility and salt tolerance in DW, SW and FW: compatible and soluble with all kinds of water; also recorded: excellent solubility
  Precipitation or phase separation of solutions in FW, SW and DW: no precipitation or phase separation was detected
  Precipitation or phase separation in formation water (FIG. 5): no signs of precipitation or phase separation
  Precipitation or phase separation in seawater (FIG. 4): no signs of precipitation or phase separation
  Solubility in simulated SW and FW: soluble
[2]
  Thermal stability by TGA, stable up to: ~300 °C
  Initial loss in weight (TGA; associated with water and solvent): 29%
  Temperature of big weight loss / decomposition temperature (TGA): 307 °C
[3]; 30° C.
  Amin (minimum area per molecule): 0.62 nm^2
  cmc: 7.1e-05 mol/L
  Γmax × 10^6 (maximum surface excess): 2.66 mol m^−2
  γcmc (surface tension at cmc): 36.89 mN m^−1
  πcmc (ability to reduce the surface tension): 34.96 mN/m
[3]; 60° C.
  Amin (minimum area per molecule): 0.71 nm^2
  cmc: 3.35e-05 mol/L
  Γmax × 10^6 (maximum surface excess): 2.33 mol m^−2
  γcmc (surface tension at cmc): 33.68 mN m^−1
  πcmc (ability to reduce the surface tension): 38.07 mN/m

## Oleyl Polyoxyethylene Amindopropyl Carboxybetaine [OPAC]
[1]
  Solubility and salt tolerance in DW, SW and FW: compatible and soluble with all kinds of water; also recorded: excellent solubility
  Precipitation or phase separation of solutions in FW, SW and DW: no precipitation or phase separation was detected
  Precipitation or phase separation in formation water (FIG. 5): no signs of precipitation or phase separation
  Precipitation or phase separation in seawater (FIG. 4): no signs of precipitation or phase separation
  Solubility in simulated SW and FW: soluble
[2]
  Thermal stability by TGA, stable up to: ~300 °C
  Initial loss in weight (TGA; associated with water and solvent): 30%
  Temperature of big weight loss / decomposition temperature (TGA): 312 °C
[3]; 30° C.
  Amin (minimum area per molecule): 0.97 nm^2
  cmc: 0.000346 mol/L
  Γmax × 10^6 (maximum surface excess): 1.70 mol m^−2
  γcmc (surface tension at cmc): 34.67 mN m^−1
  πcmc (ability to reduce the surface tension): 37.33 mN/m
[3]; 60° C.
  Amin (minimum area per molecule): 1.04 nm^2
  cmc: 9.7e-05 mol/L
  Γmax × 10^6 (maximum surface excess): 1.58 mol m^−2
  γcmc (surface tension at cmc): 32.24 mN m^−1
  πcmc (ability to reduce the surface tension): 39.76 mN/m

From patent publication US11866641B2, “Method for fracking subterranean geological formation with surfactant-containing fluid” (KING FAHD UNIVERSITY OF PETROLEUM AND MINERALS, priority 2019, dated 2024)
